Test results reported in patent US12410171B2, “Tropomyosin receptor kinase (TRK) degradation compounds and methods of use” (Cullgen (Shanghai), Inc., priority 2020, dated 2025).

Target: T1, TPM3-TRKA fusion protein (Homo sapiens, UniProt P04629)
T1 construct: The resulted chimeric proteins always retain the kinase domain of TRK proteins; TPM3 (fusion partner, N-terminal part of tropomyosin alpha-3, P06753); endogenous in cells; host or cells: KM12 colon cancer cells; the other entry of the earlier key: TPM3 (P06753, Tropomyosin alpha-3 chain)
T1 sequence (P04629 with tags, fused parts or gaps): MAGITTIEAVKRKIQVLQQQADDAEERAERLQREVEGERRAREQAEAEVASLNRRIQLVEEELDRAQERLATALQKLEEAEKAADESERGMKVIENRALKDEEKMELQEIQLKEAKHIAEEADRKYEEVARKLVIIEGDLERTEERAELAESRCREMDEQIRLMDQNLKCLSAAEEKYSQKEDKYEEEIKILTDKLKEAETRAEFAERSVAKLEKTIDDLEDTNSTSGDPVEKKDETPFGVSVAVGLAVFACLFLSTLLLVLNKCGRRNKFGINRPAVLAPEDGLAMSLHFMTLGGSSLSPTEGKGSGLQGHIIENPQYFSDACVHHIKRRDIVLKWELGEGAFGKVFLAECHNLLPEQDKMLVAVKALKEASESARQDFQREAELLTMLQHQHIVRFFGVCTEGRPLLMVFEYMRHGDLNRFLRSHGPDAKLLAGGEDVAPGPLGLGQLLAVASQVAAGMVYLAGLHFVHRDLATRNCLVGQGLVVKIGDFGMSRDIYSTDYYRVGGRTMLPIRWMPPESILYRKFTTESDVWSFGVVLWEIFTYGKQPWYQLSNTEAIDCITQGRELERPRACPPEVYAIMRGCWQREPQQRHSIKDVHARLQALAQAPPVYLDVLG
Experiment: TPM3-TRKA fusion protein levels in KM12 cells (Western blot)
Assay type: cell-based
Conditions: 16 h; TPM3-TRKA degradation in KM12 cells at 10 nM compound, category of percentage degradation; read-out: Degradation (at 10 nM)
Method: KM12 cells were treated with DMSO or indicated compounds at 100 nM for 16 hours.
KM12 cells were treated with DMSO or indicated compounds at 0. 1 nM, 1 nM or 10 nM for 16 hours.
KM12 cells were treated with DMSO or indicated compounds at various concentrations for 16 hours.
KM12 cells were treated with DMSO or indicated compounds at various concentrations for 4 hours.
KM12 cells (a cancer model comprising a colon cancer cell line) were treated with DMSO or indicated compounds at various concentrations for 4 hours.
KM12 cells were treated with heterobifunctional compounds or their corresponding control compounds at 10 nM or 100 nM for 16 hours.
KM12 cells were treated with heterobifunctional compounds or their corresponding control compounds at 0.4-30 nM for 8-16 hours. […] Cells were authenticated using the short tandem repeat (STR) assays. […] Stable cell lines were established by lentivirus transduction, selected and maintained in medium containing 1 μg/mL puromycin (Beyotime Biotechnology).
Cultured cells were washed with cold PBS once and lysed in cold RIPA buffer supplemented with protease inhibitors and phosphatase inhibitors (Beyotime Biotechnology). The solutions were then incubated at 4° C. for 30 minutes with gentle agitation to fully lyse cells. For tumor tissues, tumors were cut into small pieces, milled with cold RIPA buffer using a mechanical homogenizer and lysed for 1 hour at 4° C. Cell lysates were centrifuged at 13,000 rpm for 10 minutes at 4° C. and pellets were discarded. Total protein concentrations in the lysates were determined by BCA assays (Beyotime Biotechnology). Cell lysates were mixed with Laemmli loading buffer to 1× and heated at 99° C. for 5 min. Proteins were resolved on SDS-PAGE and visualized by chemiluminescence. Images were taken by a ChemiDoc MP Imaging system (Bio-Rad). Protein bands were quantitated using the software provided by Bio-Rad.

Compound	percent degradation of TPM3-TRKA protein at 0.01 µM [%]
O=C1CCC(N2C(=O)c3cccc(NCCCC(=O)N4CCN(c5cccc(-c6cnc7ccc(N8CCC[C@@H]8c8cccc(F)c8)nn67)n5)CC4)c3C2=O)C(=O)N1 (stereo partly drawn) [CPD-013, 2-(2,6-Dioxopiperidin-3-yl)-4-((4-(4-(6-(6-((R)-2-(3-fluorophenyl)pyrrolidin-1-yl)imidazo[1,2-b]pyridazin-3-yl)pyridin-2-yl)piperazin-1-yl)-4-oxobutyl)amino) isoindoline-1,3-dione]	> 80
O=C1CCC(N2C(=O)c3cccc(NCCCCC(=O)N4CCN(c5cccc(-c6cnc7ccc(N8CCC[C@@H]8c8cccc(F)c8)nn67)n5)CC4)c3C2=O)C(=O)N1 (stereo partly drawn) [CPD-014, 2-(2,6-Dioxopiperidin-3-yl)-4-((5-(4-(6-(6-((R)-2-(3-fluorophenyl)pyrrolidin-1-yl)imidazo[1,2-b]pyridazin-3-yl)pyridin-2-yl)piperazin-1-yl)-5-oxopentyl)amino) isoindoline-1,3-dione]	> 80
O=C1CCC(N2C(=O)c3cccc(NCCCCCC(=O)N4CCN(c5cccc(-c6cnc7ccc(N8CCC[C@@H]8c8cccc(F)c8)nn67)n5)CC4)c3C2=O)C(=O)N1 (stereo partly drawn) [CPD-015, 2-(2,6-Dioxopiperidin-3-yl)-4-((6-(4-(6-(6-((R)-2-(3-fluorophenyl)pyrrolidin-1-yl)imidazo[1,2-b]pyridazin-3-yl)pyridin-2˜yl)piperazin-1-yl)-6-oxohexyl)amino) isoindoline-1,3-dione]	> 80
O=C1CCC(N2C(=O)c3cccc(NCCOCCOCCOCCOCCC(=O)N4CCN(c5cccc(-c6cnc7ccc(N8CCC[C@@H]8c8cccc(F)c8)nn67)n5)CC4)c3C2=O)C(=O)N1 (stereo partly drawn) [CPD-021, 2-(2,6-Dioxopiperidin-3-yl)-4-((15-(4-(6-(6-((R)-2-(3-fluorophenyl)pyrrolidin-1-yl)imidazo[1,2-b]pyridazin-3-yl)pyridin-2-yl)piperazin-1-yl)-15-oxo-3,6,9,12-tetraoxapentadecyl)amino) isoindoline-1,3-dione]	> 80

Second part, the compound after the results:

percent degradation of TPM3-TRKA protein at 0.01 µM [%]	Compound
50 to 80	O=C1CCC(N2C(=O)c3cccc(NCCCCCCC(=O)N4CCN(c5cccc(-c6cnc7ccc(N8CCC[C@@H]8c8cccc(F)c8)nn67)n5)CC4)c3C2=O)C(=O)N1 (stereo partly drawn) [CPD-009, 2-(2,6-Dioxopiperidin-3-yl)-4-((7-(4-(6-(6-((R)-2-(3-fluorophenyl)pyrrolidin-1-yl)imidazo[1,2-b]pyridazin-3-yl)pyridin-2-yl)piperazin-1-yl)-7-oxoheptyl)amino) isoindoline-1,3-dione]
< 50	Cc1ncsc1-c1ccc(CNC(=O)[C@@H]2C[C@@H](O)CN2C(=O)[C@@H](NC(=O)CCCCCCCCC(=O)N2CCN(c3cccc(-c4cnc5ccc(N6CCC[C@@H]6c6cccc(F)c6)nn45)n3)CC2)C(C)(C)C)cc1 [CPD-017, (28,4R)-1-((S)-2-(10-(4-(6-(6-((R)-2-(3-Fluorophenyl)pyrrolidin-1-yl)imidazo[1,2-b]pyridazin-3-yl)pyridin-2-yl)piperazin-1-yl)-10-oxodecanamido)-3,3-dimethylbutanoyl)-4-hydroxy-N-(4-(4-methylthiazol-S-yl)benzyl)pyrrolidine-2-carboxamide]
50 to 80	Cc1ncsc1-c1ccc(CNC(=O)[C@@H]2C[C@@H](O)CN2C(=O)[C@@H](NC(=O)CCCCCCCCCC(=O)N2CCN(c3cccc(-c4cnc5ccc(N6CCC[C@@H]6c6cccc(F)c6)nn45)n3)CC2)C(C)(C)C)cc1 [CPD-022, (25,4R)-1-((S)-2-(11-(4-(6-(6-((R)-2-(3-Fluorophenyl)pyrrolidin-1-yl)imidazo[1,2-b]pyridazin-3-yl)pyridin-2-yl)piperazin-1-yl)-11-oxoundecanamido)-3,3-dimethylbutanoyl)-4-hydroxy-N-(4-(4-methylthiazol-5-yl)benzyl)pyrrolidine-2-carboxamide]
